{"source": "patent US11591341B2", "about": "(ALIGOS THERAPEUTICS, INC., priority 2019, dated 2023)", "system": "HBV", "experiment": "HBV-DNA Antiviral Assay Using HepG2.117 Cells (intracellular HBV DNA by qPCR)", "assay_type": "cell-based, hepatitis B virus (genotype D)", "conditions": "Hepatitis B virus, HepG2.117", "how_it_was_run": "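Endpoint: qPCR copy number of intracellular HBV DNA after 3-day compound exposure, with inhibition set relative to the 2% DMSO control. The cells were doxycycline-free HepG2.117 carrying a Tet-off genotype D genome, dosed at nine 4-fold dilutions. A duplicate plate gave ATP-based viability (CC50).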", "data": [{"smiles": "O=C(NCc1ccccc1-c1ccncn1)c1c2n(c(=O)n1-c1ccc(OC3CC3)cc1)CCN(C(=O)c1ccc(Br)c(Cl)c1)C2", "note": "[Example 424, 7-(4-bromo-3-chloro-benzoyl)-2-[4-(cyclopropoxy)phenyl]-3-oxo-N-[(2-pyrimidin-4-ylphenyl)methyl]-6,8-dihydro-5H-imidazo[1,5-a]pyrazine-1-carboxamide]", "values": [{"measurement": "EC50", "result": "< 100", "unit": "nM"}]}, {"smiles": "C[C@H](NC(=O)c1c2n(c(=O)n1-c1ccc(OC3CC3)cc1)CCN(C(=O)c1ccc(Br)c(Cl)c1)C2)c1ccc(OC(F)(F)F)cc1F", "note": "(stereo in doubt) [Example 291, 7-(4-bromo-3-chloro-benzoyl)-2-[4-(cyclopropoxy)phenyl]-3-oxo-N-[rac-(1S)-1-[2-fluoro-4-(trifluoromethoxy)phenyl]ethyl]-6,8-dihydro-5H-imidazo[1,5-a]pyrazine-1-carboxamide]", "values": [{"measurement": "EC50", "result": "500 to 5000", "unit": "nM"}]}, {"smiles": "COc1ccc(-n2c(C(=O)NCc3ccc(Cl)c(OC)c3)c3n(c2=O)CCN(C(=O)c2ccc(Br)c(Cl)c2)C3)cc1", "note": "[Example 101, 7-(4-bromo-3-chloro-benzoyl)-N-[(4-chloro-3-methoxy-phenyl)methyl]-2-(4-methoxyphenyl)-3-oxo-6,8-dihydro-5H-imidazo[1,5-a]pyrazine-1-carboxamide]", "values": [{"measurement": "EC50", "result": "500 to 5000", "unit": "nM"}]}, {"smiles": "COc1ccc(-n2c(C(=O)NC(C)C3CC3)c3n(c2=O)CCN(C(=O)c2ccc(Cl)c(Cl)c2)C3)cc1", "note": "(racemic) [Example 94, 7-(3,4-dichlorobenzoyl)-2-(4-methoxyphenyl)-3-oxo-N-[rac-(1S)-1-cyclopropylethyl]-6,8-dihydro-5H-imidazo[1,5-a]pyrazine-1-carboxamide]", "values": [{"measurement": "EC50", "result": "> 5000", "unit": "nM"}]}, {"smiles": "C[C@H](Oc1ccc([C@@H](C)NC(=O)c2c3n(c(=O)n2-c2ccc(OCC(F)(F)F)cc2)CCN(C(=O)c2ccc(Br)c(Cl)c2)C3)c(F)c1)C(N)=O", "note": "(stereo in doubt) [Example 360, 7-(4-bromo-3-chloro-benzoyl)-3-oxo-N-[rac-(1R)-1-[2-fluoro-4-[rac-(1S)-2-amino-1-methyl-2-oxo-ethoxy]phenyl]ethyl]-2-[4-(2,2,2-trifluoroethoxy)phenyl]-6,8-dihydro-5H-imidazo[1,5-a]pyrazine-1-carboxamide]", "values": [{"measurement": "EC50", "result": "500 to 5000", "unit": "nM"}]}, {"smiles": "O=C(NCc1ccccc1-n1cncn1)c1c2n(c(=O)n1-c1ccc(OC3CC3)cc1)CCN(C(=O)c1ccc(Br)c(Cl)c1)C2", "note": "[Example 422, 7-(4-bromo-3-chloro-benzoyl)-2-[4-(cyclopropoxy)phenyl]-3-oxo-N-[[2-(1,2,4-triazol-1-yl)phenyl]methyl]-6,8-dihydro-5H-imidazo[1,5-a]pyrazine-1-carboxamide]", "values": [{"measurement": "EC50", "result": "< 100", "unit": "nM"}]}, {"smiles": "COc1ccc(CNC(=O)c2c3n(c(=O)n2-c2ccccc2)CCN(C(=O)c2ccc(Br)c(Cl)c2)C3)c(F)c1", "note": "[Example 40, 7-(4-bromo-3-chloro-benzoyl)-N-[(2-fluoro-4-methoxy-phenyl)methyl]-3-oxo-2-phenyl-6,8-dihydro-5H-imidazo[1,5-a]pyrazine-1-carboxamide]", "values": [{"measurement": "EC50", "result": "100 to 500", "unit": "nM"}]}, {"smiles": "O=C(NCc1ccc(OC(F)F)cc1F)c1c2n(c(=O)n1-c1ccc(OCC(F)(F)F)cc1)CCN(C(=O)c1ccc(Br)c(Cl)c1)C2", "note": "[Example 286, 7-(4-bromo-3-chloro-benzoyl)-N-[[4-(difluoromethoxy)-2-fluoro-phenyl]methyl]-3-oxo-2-[4-(2,2,2-trifluoroethoxy)phenyl]-6,8-dihydro-5H-imidazo[1,5-a]pyrazine-1-carboxamide]", "values": [{"measurement": "EC50", "result": "500 to 5000", "unit": "nM"}]}, {"smiles": "NC(=O)COc1ccc(CNC(=O)c2c3n(c(=O)n2-c2ccc(OC4CC4)cc2)CCN(C(=O)c2ccc(Br)c(Cl)c2)C3)c(F)c1", "note": "[Example 324, N-[[4-(2-amino-2-oxo-ethoxy)-2-fluoro-phenyl]methyl]-7-(4-bromo-3-chloro-benzoyl)-2-[4-(cyclopropoxy)phenyl]-3-oxo-6,8-dihydro-5H-imidazo[1,5-a]pyrazine-1-carboxamide]", "values": [{"measurement": "EC50", "result": "100 to 500", "unit": "nM"}]}, {"smiles": "N#Cc1cc(C(=O)N2CCn3c(c(C(=O)NCc4ccccc4-c4ncccn4)n(-c4ccc(-n5cccn5)cc4)c3=O)C2)ccc1Br", "note": "[Example 426, 7-(4-bromo-3-cyano-benzoyl)-3-oxo-2-(4-pyrazol-1-ylphenyl)-N-[(2-pyrimidin-2-ylphenyl)methyl]-6,8-dihydro-5H-imidazo[1,5-a]pyrazine-1-carboxamide]", "values": [{"measurement": "EC50", "result": "100 to 500", "unit": "nM"}]}, {"smiles": "C[C@@H](NC(=O)c1c2n(c(=O)n1-c1ccc(OC3CC3)cc1)CCN(C(=O)c1ccc(Br)c(Cl)c1)C2)c1ccc(OC(F)(F)F)cc1F", "note": "(stereo in doubt) [Example 290, 7-(4-bromo-3-chloro-benzoyl)-2-[4-(cyclopropoxy)phenyl]-3-oxo-N-[rac-(1R)-1-[2-fluoro-4-(trilfuoromethoxy)phenyl]ethyl]-6,8-dihydro-5H-imidazo[1,5-a]pyrazine-1-carboxamide]", "values": [{"measurement": "EC50", "result": "500 to 5000", "unit": "nM"}]}, {"smiles": "COc1ccc(CN2C[C@H](O)Cn3c(c4n(c3=O)CCN(C(=O)c3ccc(Br)c(Cl)c3)C4)C2=O)cc1", "note": "(stereo in doubt) [Example 194, rac-(11S)-4-(4-bromo-3-chloro-benzoyl)-11-hydroxy-13-[(4-methoxyphenyl)methyl]-4,7,9,13-tetrazatricyclo[7.5.0.0^2,7]tetradec-1-ene-8,14-dione]", "values": [{"measurement": "EC50", "result": "100 to 500", "unit": "nM"}]}, {"smiles": "O=C(NCc1c(F)cccc1F)c1c2n(c(=O)n1-c1ccc(OC3CC3)cc1)CCN(C(=O)c1ccc(Br)c(Cl)c1)C2", "note": "[Example 306, 7-(4-bromo-3-chloro-benzoyl)-2-[4-(cyclopropoxy)phenyl]-N-[(2,6-difluorophenyl)methyl]-3-oxo-6,8-dihydro-5H-imidazo[1,5-a]pyrazine-1-carboxamide]", "values": [{"measurement": "EC50", "result": "100 to 500", "unit": "nM"}]}, {"smiles": "COc1cc(C#N)ccc1CNC(=O)c1c2n(c(=O)n1-c1ccc(OCC(F)(F)F)cc1)CCN(C(=O)c1ccc(Br)c(Cl)c1)C2", "note": "[Example 249, 7-(4-bromo-3-chloro-benzoyl)-N-[(4-cyano-2-methoxy-phenyl)methyl]-3-oxo-2-[4-(2,2,2-trifluoroethoxy)phenyl]-6,8-dihydro-5H-imidazo[1,5-a]pyrazine-1-carboxamide]", "values": [{"measurement": "EC50", "result": "100 to 500", "unit": "nM"}]}, {"smiles": "COc1ccc(-n2c(C(=O)NCc3cccc(C#N)c3)c3n(c2=O)CCN(C(=O)c2ccc(Br)c(Cl)c2)C3)cc1", "note": "[Example 62, 7-(4-bromo-3-chloro-benzoyl)-N-[(3-cyanophenyl)methyl]-2-(4-methoxyphenyl)-3-oxo-6,8-dihydro-5H-imidazo[1,5-a]pyrazine-1-carboxamide]", "values": [{"measurement": "EC50", "result": "500 to 5000", "unit": "nM"}]}, {"smiles": "C[C@@H]1Cn2c(c(C(=O)N[C@H](C)c3ccccc3F)n(-c3ccc(OC4CC4)cc3)c2=O)CN1C(=O)c1ccc(Br)c(Cl)c1", "note": "(mixture of isomers) [Example 335, (6RS)-7-(4-bromo-3-chloro-benzoyl)-2-[4-(cyclopropoxy)phenyl]-N-[(1S)-1-(2-fluorophenyl)ethyl]-6-methyl-3-oxo-6,8-dihydro-5H-imidazo[1,5-a]pyrazine-1-carboxamide]", "values": [{"measurement": "EC50", "result": "500 to 5000", "unit": "nM"}]}, {"smiles": "COC1CCC(n2c(C(=O)N[C@H](C)c3ccccc3)c3n(c2=O)CCN(C(=O)c2ccc(Br)c(Cl)c2)C3)CC1", "note": "(mixture of isomers) [Example 254, 7-(4-bromo-3-chloro-benzoyl)-2-(4-methoxycyclohexyl)-3-oxo-N-[rac-(1R)-1-phenylethyl]-6,8-dihydro-5H-imidazo[1,5-a]pyrazine-1-carboxamide]", "values": [{"measurement": "EC50", "result": "> 5000", "unit": "nM"}]}]}
